# Measured values reported in ChEMBL document CHEMBL1159161, “Synthesis and biological activities of truncated acridone: Structure-activity relationship studies of cytotoxic 5-hydroxy-4-quinolone” (Bioorg Med Chem Lett, 1997).
# Key:
# [1] = test system: Human alphaherpesvirus 2; experiment: Antiviral activity against herpes simplex virus-2.; type: functional, organism-based
# [2] = test system: L1210; experiment: In vitro antitumor activity against L1210 (murine leukemia) cells.; type: functional, cell-based; details: Mus musculus
# [3] = test system: HL-60; experiment: In vitro antitumor activity against HL60 (Human leukemia) cells.; type: functional, cell-based
# [4] = test system: Human alphaherpesvirus 1; experiment: Antiviral activity against herpes simplex virus-1.; type: functional, organism-based
Compound,IC50 [1],IC50 [2],IC50 [3],IC50 [4]
COc1ccc(OC)c2c(O)ccnc12,> 100 µM,> 40 µM,> 30 µM,> 100 µM
COc1cc2nccc(O)c2cc1OC,> 100 µM,> 40 µM,> 30 µM,> 100 µM
COc1ccc2c(O)ccnc2c1,> 100 µM,> 40 µM,> 30 µM,> 100 µM
COc1cc2c(c(O)c1OC)c(=O)ccn2C,> 100 µM,> 40 µM,> 30 µM,> 100 µM
COc1cc(OC)c2c(=O)ccn(C)c2c1,> 100 µM,> 40 µM,> 30 µM,> 100 µM
COc1cc(OC)c2c(=O)cc[nH]c2c1,,> 40 µM,> 30 µM,
COc1ccc(O)c2c(=O)ccn(C)c12,> 100 µM,> 40 µM,> 30 µM,> 100 µM
COc1cc2nccc(O)c2c(O)c1OC,> 100 µM,> 40 µM,> 30 µM,> 100 µM
COc1ccc(C)c2nccc(O)c12,> 100 µM,> 40 µM,> 30 µM,> 100 µM
COc1cc(C(F)(F)F)cc2nccc(O)c12,> 100 µM,> 40 µM,> 30 µM,> 100 µM
Oc1cccc2nccc(O)c12,83 µM,> 40 µM,> 30 µM,54 µM
COc1cc(C(F)(F)F)c2c(O)ccnc2c1,29.4 µM,> 40 µM,> 30 µM,29.4 µM
COc1cc2nccc(O)c2c(OC)c1OC,> 100 µM,> 40 µM,> 30 µM,> 100 µM
COc1cc2c(c(OC)c1OC)c(=O)ccn2C,> 100 µM,> 40 µM,> 30 µM,> 100 µM
COc1ccc(O)c2c(O)ccnc12,> 100 µM,,17.7 µM,82.6 µM
COc1cc2c(O)ccnc2cc1O,> 100 µM,> 40 µM,> 30 µM,> 100 µM
COc1cc2c(=O)ccn(C)c2cc1OC,> 100 µM,> 40 µM,> 30 µM,> 100 µM
COc1cc(O)c2c(O)ccnc2c1,,> 40 µM,> 30 µM,
COc1ccc(Cl)c2nccc(O)c12,> 100 µM,> 40 µM,> 30 µM,> 100 µM
Oc1ccnc2cc(C(F)(F)F)cc(O)c12,,> 40 µM,> 30 µM,
Cc1ccc(O)c2c(O)ccnc12,> 100 µM,> 40 µM,> 30 µM,27.1 µM
Nc1nc2c(ncn2COCCO)c(=O)[nH]1 [ACYCLOVIR],2.1 µM,,,0.2 µM
Nc1ccn([C@@H]2O[C@H](CO)[C@@H](O)[C@@H]2O)c(=O)n1 [CYTARABINE],2 µM,,,0.3 µM
COc1c(OC)c(OC)c2c(c1O)c(=O)c1ccc(O)c(OC)c1n2C [GLYFOLINE],,26.5 µM,1.4 µM,
